Laboratory results from paper PMC12260505, “First-in-Human Phase I/IIa Study of the First-in-Class CDK2/4/6 Inhibitor PF-06873600 Alone or with Endocrine Therapy in Patients with Breast Cancer” (Clinical Cancer Research, 2025).
Where “and” joins values, the source holds several entries; their conditions need not be identical. Equal entries are not always repeated.

Test: Plasma PF-06873600 pharmacokinetics (LC/MS-MS, noncompartmental analysis)
Type: in vivo, human
Description: Plasma samples were analyzed for PF-06873600 concentrations at Q2 Solutions using a validated analytic assay in compliance with Pfizer standard operating procedures. PF-06873600 samples were assayed by a validated LC/MS-MS using positive ionization mode. PK parameters were calculated using noncompartmental analysis of plasma concentration–time data.

[1] = Cycle 1 Day 15, Part 1A 1 mg BID IR
[2] = Cycle 1 Day 15, Part 1A 2 mg BID IR
[3] = Cycle 1 Day 15, Part 1A 5 mg BID IR
[4] = Cycle 1 Day 15, Part 1A 10 mg BID IR
[5] = Cycle 1 Day 15, Part 1A 25 mg BID Biomarker IR
[6] = Cycle 1 Day 15, Part 1A 25 mg BID IR
[7] = Cycle 1 Day 15, Part 1A 35 mg BID IR
[8] = Cycle 1 Day 15, Part 1A 35 mg BID Intm 5/2 IR
[9] = Cycle 1 Day 15, Part 1A 50 mg BID IR
[10] = Cycle 1 Day 15, Part 1B 25 mg BID +Ful IR
[11] = Cycle 1 Day 15, Part 1B 25 mg BID +Let IR
[12] = Cycle 1 Day 15, Part 1C MR 30 mg BID long duration
[13] = Day -4, Part 1C single dose 20 mg MR Long Duration
[14] = Day -7, Part 1C single dose 20 mg MR Short Duration

C[C@@]1(O)CCC[C@H]1n1c(=O)c(C(F)F)cc2cnc(NC3CCN(S(C)(=O)=O)CC3)nc21 [PF-06873600]
Cmax, individual value(s) [1]: 10.9 ng/mL
Cmin, individual value(s) [1]: 0.000 ng/mL
Rac (observed accumulation ratio based on AUC), individual value(s) [1]: 1.21
Tmax, median (range) [1]: 1.00 h
AUCtau, individual value(s) [2]: 51.4 ng·h/mL and 86.9 ng·h/mL
CL/F, individual value(s) [2]: 23.0 L/h and 38.9 L/h
Cmax, individual value(s) [2]: 18.2 ng/mL and 45.4 ng/mL
Rac (observed accumulation ratio based on AUC), individual value(s) [2]: 1.16
Tmax, median (range) [2]: 1.25 h
Vz/F, individual value(s) [2]: 53.3 L and 98.4 L
t1/2, individual value(s) [2]: 5800 s and 6300 s
Cmin, individual value(s) (Cycle 1 Day 15, Part 1A 2 mg BID IR (both patients 0.000)): 0.000 ng/mL
AUCtau, individual value(s) [3]: 150 ng·h/mL and 483 ng·h/mL
CL/F, individual value(s) [3]: 10.4 L/h and 33.2 L/h
Cmax, individual value(s) [3]: 46.3 ng/mL and 126 ng/mL
Cmin, individual value(s) [3]: 1.19 ng/mL and 23.6 ng/mL
Rac (observed accumulation ratio based on AUC), individual value(s) [3]: 1.53
Tmax, median (range) [3]: 1.20 h
Vz/F, individual value(s) [3]: 124 L
t1/2, individual value(s) [3]: 9320 s
AUCtau, geometric mean (%CV) [4]: 448.8 (25) ng.h/mL
CL/F, geometric mean (%CV) [4]: 22.28 (24) L/h
Cmax, geometric mean (%CV) [4]: 124.3 (29) ng/mL
Cmin, geometric mean (%CV) [4]: 5.499 (5) ng/mL
Rac (observed accumulation ratio based on AUC), geometric mean (%CV) [4]: 0.7263
Tmax, median (range) [4]: 2.00 h
Vz/F, geometric mean (%CV) [4]: 72.17 (19) L
t1/2, arithmetic mean±standard deviation [4]: 2.250 h
AUCtau, geometric mean (%CV) [5]: 1010 (40) ng.h/mL
CL/F, geometric mean (%CV) [5]: 24.76 (40) L/h
Cmax, geometric mean (%CV) [5]: 246.4 (40) ng/mL
Cmin, geometric mean (%CV) [5]: 21.28 (130) ng/mL
Rac (observed accumulation ratio based on AUC), geometric mean (%CV) [5]: 1.254 (49)
Tmax, median (range) [5]: 1.92 h
Vz/F, geometric mean (%CV) [5]: 99.62 (35) L
t1/2, arithmetic mean±standard deviation [5]: 2.797 h
AUCtau, geometric mean (%CV) [6]: 1695 (34) ng.h/mL
CL/F, geometric mean (%CV) [6]: 14.78 (34) L/h
Cmax, geometric mean (%CV) [6]: 382.4 (33) ng/mL
Cmin, geometric mean (%CV) [6]: 37.63 ng/mL
Rac (observed accumulation ratio based on AUC), geometric mean (%CV) [6]: 1.045 (17)
Tmax, median (range) [6]: 1.95 h
Vz/F, geometric mean (%CV) [6]: 57.62 (29) L
t1/2, arithmetic mean±standard deviation [6]: 2.733 h
AUCtau, individual value(s) [7]: 2060 ng·h/mL and 2360 ng·h/mL
CL/F, individual value(s) [7]: 14.8 L/h and 17.0 L/h
Cmax, individual value(s) [7]: 362 ng/mL and 399 ng/mL
Cmin, individual value(s) [7]: 52.1 ng/mL and 80.4 ng/mL
Rac (observed accumulation ratio based on AUC), individual value(s) [7]: 0.822
Tmax, median (range) [7]: 2.01 h
Vz/F, individual value(s) [7]: 70.8 L
t1/2, individual value(s) [7]: 11900 s
AUCtau, geometric mean (%CV) [8]: 1372 (39) ng.h/mL
CL/F, geometric mean (%CV) [8]: 25.54 (39) L/h
Cmax, geometric mean (%CV) [8]: 290.2 (29) ng/mL
Cmin, geometric mean (%CV) [8]: 25.56 (8) ng/mL
Rac (observed accumulation ratio based on AUC), geometric mean (%CV) [8]: 0.8893
Tmax, median (range) [8]: 2.23 h
Vz/F, geometric mean (%CV) [8]: 99.03 (48) L
t1/2, arithmetic mean±standard deviation [8]: 2.752 h
AUCtau, geometric mean (%CV) [9]: 1607 (34) ng.h/mL
CL/F, geometric mean (%CV) [9]: 21.99 (44) L/h
Cmax, geometric mean (%CV) [9]: 335.2 (22) ng/mL
Cmin, geometric mean (%CV) [9]: 25.63 ng/mL
Rac (observed accumulation ratio based on AUC), geometric mean (%CV) [9]: 1.260 (25)
Tmax, median (range) [9]: 1.98 h
Vz/F, geometric mean (%CV) [9]: 75.41 (17) L
t1/2, arithmetic mean±standard deviation [9]: 2.535 h
AUCtau, geometric mean (%CV) [10]: 1229 (41) ng.h/mL
CL/F, geometric mean (%CV) [10]: 20.35 (41) L/h
Cmax, geometric mean (%CV) [10]: 305.0 (35) ng/mL
Cmin, geometric mean (%CV) [10]: 21.25 ng/mL
Rac (observed accumulation ratio based on AUC), geometric mean (%CV) [10]: 1.191 (29)
Tmax, median (range) [10]: 1.88 h
Vz/F, geometric mean (%CV) [10]: 75.71 (32) L
t1/2, arithmetic mean±standard deviation [10]: 2.508 h
AUCtau, geometric mean (%CV) [11]: 1273 (50) ng.h/mL
CL/F, geometric mean (%CV) [11]: 19.63 (49) L/h
Cmax, geometric mean (%CV) [11]: 276.5 (31) ng/mL
Cmin, geometric mean (%CV) [11]: 13.33 ng/mL
Rac (observed accumulation ratio based on AUC), geometric mean (%CV) [11]: 1.268 (35)
Tmax, median (range) [11]: 2.08 h
Vz/F, geometric mean (%CV) [11]: 80.33 (27) L
t1/2, arithmetic mean±standard deviation [11]: 2.468 h
AUCtau, geometric mean (%CV) [12]: 636.8 (59) ng.h/mL
CL/F, geometric mean (%CV) [12]: 47.08 (59) L/h
Cmax, geometric mean (%CV) [12]: 82.1 ng/mL
Cmin, geometric mean (%CV) [12]: 45.78 (49) ng/mL
Tmax, median (range) [12]: 2.99 (0.000–4.00) h
AUCinf, individual value(s) [13]: 584 ng·h/mL and 713 ng·h/mL
AUClast, geometric mean (%CV) [13]: 469.7 (63) ng.h/mL
CL/F, individual value(s) [13]: 28.0 L/h and 34.3 L/h
Cmax, geometric mean (%CV) [13]: 39 ng/mL
Tmax, median (range) [13]: 12.0 (6.00–12.0) h
Vz/F, individual value(s) [13]: 163 L and 496 L
t1/2, individual value(s) [13]: 14500 s and 36000 s
AUCinf, geometric mean (%CV) [14]: 687.8 (73) ng.h/mL
AUClast, geometric mean (%CV) [14]: 639.7 (67) ng.h/mL
CL/F, geometric mean (%CV) [14]: 29.05 (73) L/h
Cmax, geometric mean (%CV) [14]: 73.7 ng/mL
Tmax, median (range) [14]: 5.33 (2.00–6.00) h
Vz/F, geometric mean (%CV) [14]: 218.1 (50) L
t1/2, arithmetic mean±standard deviation [14]: 6.778 ± 5.7890 h
Part of dosing interval with mean steady-state PK concentrations above predicted effective concentrations (Ceff) (RDE 25 mg twice daily, Ceff from HCC1428, HCC1806, and Ovar3 models): at least 70 % of the dosing interval
Criterion of concentrations above Ceff for at least 70% of the dosing interval (RDE 25 mg twice daily, Ceff from the MCF7 model): not achieved
Plasma exposures, monotherapy vs combination therapy with fulvestrant or letrozole (in vivo): largely comparable
